Source: patent publication US20250026778A1 (TIUMBIO CO., LTD., priority 2021, published 2025)

The compounds below were run against T1, his-galectin-3 (Homo sapiens, UniProt P17931) (assay: TR-FRET assay (in vitro galectin-3 binding inhibitory activity test)). Conditions: Table 2; compound at 20 μM; 60 nM his-galectin-3, 15 nM biotin-ASF; read-out: % Inhibitory activity (at 20 μM).
T1 construct: purchased Abcam
Outline: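 Compound is premixed with his-galectin-3 (60 nM final), then biotin-ASF (15 nM), Tb anti-His antibody (2 nM) and streptavidin-d2 (20 nM) are added. After at least 3.5 hours at RT in HEPES/NaCl buffer with Tween 20 and BSA, TR-FRET is read at 615/665 nm. DMSO serves as the uninhibited control, ASF omission as background.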

T1 sequence (P17931 whole entry): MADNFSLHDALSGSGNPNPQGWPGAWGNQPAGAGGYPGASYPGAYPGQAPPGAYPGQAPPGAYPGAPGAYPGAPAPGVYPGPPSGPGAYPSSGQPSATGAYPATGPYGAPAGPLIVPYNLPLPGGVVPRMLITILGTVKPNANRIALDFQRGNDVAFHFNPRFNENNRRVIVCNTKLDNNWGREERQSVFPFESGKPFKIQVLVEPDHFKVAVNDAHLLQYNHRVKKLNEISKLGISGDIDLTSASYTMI

inhibition at 20 µM | Compound
> 75% | O=C(N[C@@H]1CCO[C@]12O[C@H](CO)[C@H](O)[C@H](n1cc(-c3cc(F)c(F)c(F)c3)nn1)[C@H]2O)c1cccc2c(Cl)cccc12 [Compound A169, 5-chloro-N-((4R,5S,7R,8R,9S,10R)-8,10-dihydroxy-7-(hydroxymethyl)-9-(4-(3,4,5-trifluorophenyl)-1H-1,2,3-triazol-1-yl)-1,6-dioxaspiro[4.5]decan-4-yl)-1-naphthamide]
> 75% | O=C(N[C@@H]1CCO[C@]12O[C@H](CO)[C@H](O)[C@H](n1cc(-c3cc(F)c(F)c(F)c3)nn1)[C@H]2O)c1ccc(F)c2ccccc12 [Compound A170, N-((4R,5S,7R,8R,9S,10R)-8,10-dihydroxy-7-(hydroxymethyl)-9-(4-(3,4,5-trifluorophenyl)-1H-1,2,3-triazol-1-yl)-1,6-dioxaspiro[4.5]decan-4-yl)-4-difluoro-1-naphthamide]
> 75% | O=C(N[C@@H]1CCO[C@]12O[C@H](CO)[C@H](O)[C@H](n1cc(-c3cc(F)c(F)c(F)c3)nn1)[C@H]2O)c1ccc(Cl)c2ccccc12 [Compound A172, 4-chloro-N-((4R,5S,7R,8R,9S,10R)-8,10-dihydroxy-7-(hydroxymethyl)-9-(4-(3,4,5-trifluorophenyl)-1H-1,2,3-triazol-1-yl)-1,6-dioxaspiro[4.5]decan-4-yl)-1-naphthamide]
25 to 50% | O=C(N[C@@H]1CCO[C@]12O[C@H](CO)[C@H](O)[C@H](n1cc(-c3cc(F)c(F)c(F)c3)nn1)[C@H]2O)c1ccc2cc(Cl)ccc2c1 [Compound A173, 6-chloro-N-((4R,5S,7R,8R,9S,10R)-8,10-dihydroxy-7-(hydroxymethyl)-9-(4-(3,4,5-trifluorophenyl)-1H-1,2,3-triazol-1-yl)-1,6-dioxaspiro[4.5]decan-4-yl)-2-naphthamide]
> 75% | O=C(N[C@@H]1CCO[C@]12O[C@H](CO)[C@H](O)[C@H](n1cc(-c3cc(F)c(F)c(F)c3)nn1)[C@H]2O)c1ccc(Br)c2ccccc12 [Compound A176, 4-bromo-N-((4R,5S,7R,8R,9S,10R)-8,10-dihydroxy-7-(hydroxymethyl)-9-(4-(3,4,5-trifluorophenyl)-1H-1,2,3-triazol-1-yl)-1,6-dioxaspiro[4.5]decan-4-yl)-1-naphthamide]
> 75% | O=C(N[C@@H]1CCO[C@]12O[C@H](CO)[C@H](O)[C@H](n1cc(-c3cc(F)c(F)c(F)c3)nn1)[C@H]2O)c1csc2ccc(Cl)cc12 [Compound A177, 5-chloro-N-((4R,5S,7R,8R,9S,10R)-8,10-dihydroxy-7-(hydroxymethyl)-9-(4-(3,4,5-trifluorophenyl)-1H-1,2,3-triazol-1-yl)-1,6-dioxaspiro[4.5]decan-4-yl)benzo[b]thiophene-3-carboxamide]
> 75% | O=C(N[C@@H]1CCO[C@]12O[C@H](CO)[C@H](O)[C@H](n1cc(-c3cc(F)c(F)c(F)c3)nn1)[C@H]2O)c1cc(Br)cc2ccccc12 [Compound A178, 3-bromo-N-((4R,5S,7R,8R,9S,10R)-8,10-dihydroxy-7-(hydroxymethyl)-9-(4-(3,4,5-trifluorophenyl)-1H-1,2,3-triazol-1-yl)-1,6-dioxaspiro[4.5]decan-4-yl)-1-naphthamide]
50 to 75% | O=C(N[C@@H]1CCO[C@]12O[C@H](CO)[C@H](O)[C@H](n1cc(-c3cc(F)c(F)c(F)c3)nn1)[C@H]2O)c1cccc(-c2ccccc2Br)c1 [Compound A179, 2′-bromo-N-((4R,5S,7R,8R,9S,10R)-8,10-dihydroxy-7-(hydroxymethyl)-9-(4-(3,4,5-trifluorophenyl)-1H-1,2,3-triazol-1-yl)-1,6-dioxaspiro[4.5]decan-4-yl)-[1,1′-biphenyl]-3-carboxamide]
> 75% | O=C(N[C@@H]1CCO[C@]12O[C@H](CO)[C@H](O)[C@H](n1cc(-c3cc(F)c(F)c(F)c3)nn1)[C@H]2O)c1coc2ccc(Br)cc12 [Compound A180, 5-bromo-N-((4R,5S,7R,8R,9S,10R)-8,10-dihydroxy-7-(hydroxymethyl)-9-(4-(3,4,5-trifluorophenyl)-1H-1,2,3-triazol-1-yl)-1,6-dioxaspiro[4.5]decan-4-yl)benzofuran-3-carboxamide]
> 75% | O=C(N[C@@H]1CCO[C@]12O[C@H](CO)[C@H](O)[C@H](n1cc(-c3cc(F)c(F)c(F)c3)nn1)[C@H]2O)c1sc2ccccc2c1Br [Compound A181, 3-bromo-N-((4R,5S,7R,8R,9S,10R)-8,10-dihydroxy-7-(hydroxymethyl)-9-(4-(3,4,5-trifluorophenyl)-1H-1,2,3-triazol-1-yl)-1,6-dioxaspiro[4.5]decan-4-yl)benzo[b]thiophene-2-carboxamide]
50 to 75% | O=C(N[C@@H]1CCO[C@]12O[C@H](CO)[C@H](O)[C@H](n1cc(-c3cc(F)c(F)c(F)c3)nn1)[C@H]2O)c1nsc2ccccc12 [Compound A182, N-((4R,5S,7R,8R,9S,10R)-8,10-dihydroxy-7-(hydroxymethyl)-9-(4-(3,4,5-trifluorophenyl)-1H-1,2,3-triazol-1-yl)-1,6-dioxaspiro[4.5]decan-4-yl)benzo[d]isothiazole-3-carboxamide]
< 25% | O=C(Cc1cccc(Oc2ccccc2)c1)N[C@@H]1CCO[C@]12O[C@H](CO)[C@H](O)[C@H](n1cc(-c3cc(F)c(F)c(F)c3)nn1)[C@H]2O [Compound A183, N-((4R,5S,7R,8R,9S,10R)-8,10-dihydroxy-7-(hydroxymethyl)-9-(4-(3,4,5-trifluorophenyl)-1H-1,2,3-triazol-1-yl)-1,6-dioxaspiro[4.5]decan-4-yl)-2-(3-phenoxyphenyl)acetamide]
< 25% | O=C(c1cccc2ccccc12)N1CCC[C@]2(C1)O[C@H](CO)[C@H](O)[C@H](n1cc(-c3cc(F)c(F)c(F)c3)nn1)[C@H]2O [Compound A185, ((2R,3R,4S,5R,6R)-3,5-dihydroxy-2-(hydroxymethyl)-4-(4-(3,4,5-trifluorophenyl)-1H-1,2,3-triazol-1-yl)-1-oxa-8-azaspiro[5.5]undecan-8-yl)(naphthalen-1-yl)methanone]
< 25% | O=C(c1ccc2ccccc2c1)N1CCC[C@]2(C1)O[C@H](CO)[C@H](O)[C@H](n1cc(-c3cc(F)c(F)c(F)c3)nn1)[C@H]2O [Compound A186, ((2R,3R,4S,5R,6R)-3,5-dihydroxy-2-(hydroxymethyl)-4-(4-(3,4,5-trifluorophenyl)-1H-1,2,3-triazol-1-yl)-1-oxa-8-azaspiro[5.5]undecan-8-yl)(naphthalen-2-yl)methanone]
< 25% | O=C(c1cc2ccccc2s1)N1CCC[C@]2(C1)O[C@H](CO)[C@H](O)[C@H](n1cc(-c3cc(F)c(F)c(F)c3)nn1)[C@H]2O [Compound A187, benzo[b]thiophen-2-yl((2R,3R,4S,5R,6R)-3,5-dihydroxy-2-(hydroxymethyl)-4-(4-(3,4,5-trifluorophenyl)-1H-1,2,3-triazol-1-yl)-1-oxa-8-azaspiro[5.5]undecan-8-yl)methanone]
< 25% | O=C(c1ccccn1)N1CCC[C@]2(C1)O[C@H](CO)[C@H](O)[C@H](n1cc(-c3cc(F)c(F)c(F)c3)nn1)[C@H]2O [Compound A188, ((2R,3R,4S,5R,6R)-3,5-dihydroxy-2-(hydroxymethyl)-4-(4-(3,4,5-trifluorophenyl)-1H-1,2,3-triazol-1-yl)-1-oxa-8-azaspiro[5.5]undecan-8-yl)(pyridin-2-yl)methanone]
< 25% | O=C(c1ccncc1)N1CCC[C@]2(C1)O[C@H](CO)[C@H](O)[C@H](n1cc(-c3cc(F)c(F)c(F)c3)nn1)[C@H]2O [Compound A189, ((2R,3R,4S,5R,6R)-3,5-dihydroxy-2-(hydroxymethyl)-4-(4-(3,4,5-trifluorophenyl)-1H-1,2,3-triazol-1-yl)-1-oxa-8-azaspiro[5.5]undecan-8-yl)(pyridin-4-yl)methanone]
< 25% | O=C(c1cncs1)N1CCC[C@]2(C1)O[C@H](CO)[C@H](O)[C@H](n1cc(-c3cc(F)c(F)c(F)c3)nn1)[C@H]2O [Compound A190, ((2R,3R,4S,5R,6R)-3,5-dihydroxy-2-(hydroxymethyl)-4-(4-(3,4,5-trifluorophenyl)-1H-1,2,3-triazol-1-yl)-1-oxa-8-azaspiro[5.5]undecan-8-yl)(thiazol-5-yl)methanone]
< 25% | OC[C@H]1O[C@@]2(CCCN(c3ccccc3)C2)[C@H](O)[C@@H](n2cc(-c3cc(F)c(F)c(F)c3)nn2)[C@H]1O [Compound A191, (2R,3R,4S,5R,6R)-2-(hydroxymethyl)-8-phenyl-4-(4-(3,4,5-trifluorophenyl)-1H-1,2,3-triazol-1-yl)-1-oxa-8-azaspiro[5.5]undecane-3,5-diol]

Same assay, conditions: Table 3, found values; compound at 20 μM; 60 nM his-galectin-3, 15 nM biotin-ASF; read-out: % Inhibitory activity (at 20 μM)

inhibition at 20 µM | Compound
85.3% | O=C(N[C@@H]1CCO[C@]12O[C@H](CO)[C@H](O)[C@H](n1cc(-c3cc(F)c(F)c(F)c3)nn1)[C@H]2O)c1ccc(F)c2ccccc12 [Compound A170, N-((4R,5S,7R,8R,9S,10R)-8,10-dihydroxy-7-(hydroxymethyl)-9-(4-(3,4,5-trifluorophenyl)-1H-1,2,3-triazol-1-yl)-1,6-dioxaspiro[4.5]decan-4-yl)-4-difluoro-1-naphthamide]
73% | O=C(N[C@@H]1CCO[C@]12O[C@H](CO)[C@H](O)[C@H](n1cc(-c3cc(F)c(F)c(F)c3)nn1)[C@H]2O)c1nsc2ccccc12 [Compound A182, N-((4R,5S,7R,8R,9S,10R)-8,10-dihydroxy-7-(hydroxymethyl)-9-(4-(3,4,5-trifluorophenyl)-1H-1,2,3-triazol-1-yl)-1,6-dioxaspiro[4.5]decan-4-yl)benzo[d]isothiazole-3-carboxamide]
24% | OC[C@H]1O[C@@]2(CCCN(c3ccccc3)C2)[C@H](O)[C@@H](n2cc(-c3cc(F)c(F)c(F)c3)nn2)[C@H]1O [Compound A191, (2R,3R,4S,5R,6R)-2-(hydroxymethyl)-8-phenyl-4-(4-(3,4,5-trifluorophenyl)-1H-1,2,3-triazol-1-yl)-1-oxa-8-azaspiro[5.5]undecane-3,5-diol]

Same assay, conditions: read-out: % Inhibitory activity (at 20 μM), Table 2; compound at 20 μM; 60 nM his-galectin-3, 15 nM biotin-ASF

Compound | inhibition at 20 µM
O=C(N[C@@H]1CCO[C@]12O[C@H](CO)[C@H](O)[C@H](n1cc(-c3cc(F)c(F)c(F)c3)nn1)[C@H]2O)c1ccccc1Oc1ccccc1 [Compound A171, N-((4R,5S,7R,8R,9S,10R)-8,10-dihydroxy-7-(hydroxymethyl)-9-(4-(3,4,5-trifluorophenyl)-1H-1,2,3-triazol-1-yl)-1,6-dioxaspiro[4.5]decan-4-yl)-2-phenoxybenzamide] | 25 to 50%
O=C(Cc1ccccc1)N1CCC[C@]2(C1)O[C@H](CO)[C@H](O)[C@H](n1cc(-c3cc(F)c(F)c(F)c3)nn1)[C@H]2O [Compound A184, 1-((2R,3R,4S,5R,6R)-3,5-dihydroxy-2-(hydroxymethyl)-4-(4-(3,4,5-trifluorophenyl)-1H-1,2,3-triazol-1-yl)-1-oxa-8-azaspiro[5.5]undecan-8-yl)-2-phenylethanone] | < 25%
